Counter-ions that a name gives are not always drawn.

T1 sequence (Q00960 27-1482, other chains not shown): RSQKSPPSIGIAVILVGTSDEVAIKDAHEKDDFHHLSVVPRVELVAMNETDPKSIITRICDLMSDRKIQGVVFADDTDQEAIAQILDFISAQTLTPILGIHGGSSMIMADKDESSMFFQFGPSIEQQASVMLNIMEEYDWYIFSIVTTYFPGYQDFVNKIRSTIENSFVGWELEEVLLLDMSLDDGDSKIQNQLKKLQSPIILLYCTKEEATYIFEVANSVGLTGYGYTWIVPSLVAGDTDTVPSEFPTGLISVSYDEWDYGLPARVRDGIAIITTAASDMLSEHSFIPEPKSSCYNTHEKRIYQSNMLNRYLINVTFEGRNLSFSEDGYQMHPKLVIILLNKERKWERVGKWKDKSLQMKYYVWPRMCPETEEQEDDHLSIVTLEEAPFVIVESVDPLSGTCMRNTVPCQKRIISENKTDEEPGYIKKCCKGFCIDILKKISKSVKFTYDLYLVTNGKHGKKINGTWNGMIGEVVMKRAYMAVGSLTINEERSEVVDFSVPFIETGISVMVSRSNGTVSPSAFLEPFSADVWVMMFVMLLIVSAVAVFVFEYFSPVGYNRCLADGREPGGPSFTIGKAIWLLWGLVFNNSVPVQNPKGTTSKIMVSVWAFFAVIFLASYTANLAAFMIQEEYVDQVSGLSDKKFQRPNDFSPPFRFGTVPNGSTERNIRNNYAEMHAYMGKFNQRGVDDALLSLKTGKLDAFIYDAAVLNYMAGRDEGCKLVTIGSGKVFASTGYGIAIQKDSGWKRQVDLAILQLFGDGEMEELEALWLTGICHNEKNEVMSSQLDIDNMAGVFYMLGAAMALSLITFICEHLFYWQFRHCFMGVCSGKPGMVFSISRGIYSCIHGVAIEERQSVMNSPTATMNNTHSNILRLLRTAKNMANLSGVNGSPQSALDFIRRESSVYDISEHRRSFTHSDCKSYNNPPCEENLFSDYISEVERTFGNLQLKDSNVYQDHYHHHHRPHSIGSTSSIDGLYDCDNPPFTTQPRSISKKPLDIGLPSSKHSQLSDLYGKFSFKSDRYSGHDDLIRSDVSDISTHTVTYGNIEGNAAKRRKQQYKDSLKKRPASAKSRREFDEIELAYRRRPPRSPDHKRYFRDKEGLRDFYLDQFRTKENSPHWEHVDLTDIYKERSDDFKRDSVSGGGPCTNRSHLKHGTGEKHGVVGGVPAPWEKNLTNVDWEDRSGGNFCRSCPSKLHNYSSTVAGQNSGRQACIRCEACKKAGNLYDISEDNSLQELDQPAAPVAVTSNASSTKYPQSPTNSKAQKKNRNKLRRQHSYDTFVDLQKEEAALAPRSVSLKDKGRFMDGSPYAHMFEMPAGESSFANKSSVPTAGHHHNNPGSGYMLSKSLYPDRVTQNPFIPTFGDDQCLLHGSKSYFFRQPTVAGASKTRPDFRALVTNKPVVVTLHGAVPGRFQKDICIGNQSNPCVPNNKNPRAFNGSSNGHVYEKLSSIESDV

The first data set concerns the target T1, NMDA-receptor subtype 2B (Rattus norvegicus, UniProt P35439+Q00960).
T1 construct: Membranes were prepared by homogenization of the whole brain minus cerebellum and medulla oblongata; from tissue; host or cells: rat whole brain minus cerebellum and medulla oblongata, membrane preparation
Nature of the data set: 3H-Ro 25-6981 binding (displacement) on rat brain membranes. The following applies: displacement of 5 nM 3H-Ro 25-6981, rat whole brain membranes (minus cerebellum and medulla oblongata), 2 hours at 4° C. The method, then: ^3H[R-(R*,S*)]-(α-(4-Hydroxy-phenyl)-β-methyl-4-(phenyl-methyl)-1-piperidine propanol)binding
Male Füllinsdorf albino rats weighing between 150-200 g were used. Membranes were prepared by homogenization of the whole brain minus cerebellum and medulla oblongata with a Polytron (10.000 rpm, 30 seconds), in 25 volumes of a cold Tris-HCl 50 mM, EDTA 10 mM, pH 7.1 buffer. The homogenate was centrifuged at 48,000 g for 10 minutes at 4° C. The pellet was resuspended using the Polytron in the same volume of buffer and the homogenate was incubated at 37° C. for 10 minutes. After centrifugation the pellet was homogenized in the same buffer and frozen at −80° C. for at least 16 hours but not more than 10 days. For the binding assay the homogenate was thawed at 37° C., centrifuged and the pellet was washed three times as above in a Tris-HCl 5 mM, pH 7.4 cold buffer. The final pellet was resuspended in the same buffer and used at a final concentration of […]. ^3H-Ro 25-6981 binding experiments were performed using a Tris-HCl 50 mM, pH 7.4 buffer. For displacement experiments 5 nM of ^3H-Ro 25-6981 were used and non specific binding was measured using 10 mM of tetrahydroisoquinoline and usually it accounts for 10% of the total. The incubation time was 2 hours at 4° C. and the assay was stopped by filtration on Whatmann GF/B glass fiber filters (Unifilter-96, Packard, Zürich, Switzerland). The filters were washed 5 times with cold buffer. The radioactivity on the filter was counted on a Packard Top-count microplate scintillation counter after addition of […] of microscint 40 (Canberra Packard S.A., Zuirich, Switzerland).
The effects of compounds were measured using a minimum of 8 concentrations and repeated at least once.
Consider “1H-Imidazole, 1-(3,4-Dichlorophenyl)-4-[(4-methyl-1H-imidazol-1-yl)methyl]-, Hydrochloride (1:2) and 1H-Imidazole, 1-(3,4-Dichlorophenyl)-4-[(5-methyl-1H-imidazol-1-yl)methyl]-, Hydrochloride (1:2) (ratio 3:2) [Example 6]”, for which the IC50 is 45 nM.

On to “4-Imidazol-1-ylmethyl-1-(3-methylsulfanyl-phenyl)-1H-imidazole Hydrochloride (1:2) [Example 145]”, for which the IC50 turned out to be 54 nM.

Turning to `Cc1ccc(-n2cnc(Cn3ccnc3)c2)cc1C` [Example 21], the IC50 is 43 nM.

In turn, `CSc1ccc(-n2cnc(Cn3ccnc3C)c2)cc1` [Example 27] yielded an IC50 of 27 nM.

The compound `Cc1cc(-n2cnc(Cn3ccnc3N)c2)ccc1Cl` [Example 105, 1-[1-(4-Chloro-3-methyl-phenyl)-1H-imidazol-4-yl-methyl]-1H-imidazol-2-yl-amine-, Hydrochloride (1:2)] registered an IC50 of 1 nM.

With `Cc1cc(-c2c[nH]c(Cn3ccnc3C)n2)ccc1F` [Example 119, 1H-Imidazole, 1-[[4-(4-Fluoro-3-methylphenyl)-1H-imidazol-2-yl]methyl]-2-methyl-, Hydrochloride (1:2)], the IC50 came out at 46 nM.

The compound `Cc1ccc(-c2cncc(Cn3ccnc3C)c2)cc1C` [Example 130, 3-(3,4-Dimethyl-phenyl)-5-(2-methyl-imidazol-1-yl-methyl)-pyridine Hydrochloride (1:1)] showed an IC50 of 65 nM.

Regarding `Cc1ccc(-c2cncc(Cn3ccnc3C)c2)cc1Cl` [Example 136, 3-(3-Chloro-4-methyl-phenyl)-5-(2-methyl-imidazol-1-yl-methyl)-pyridine Hydrochloride (1:1)], the IC50 was determined as 80 nM.

In turn, `Cc1nccn1Cc1cncc(-c2ccc3c(c2)CCC3)c1` [Example 139, 3-Indan-5-yl-5-(2-methyl-imidazol-1-yl-methyl)-pyridine Hydrochloride (1:1)] registered an IC50 of 65 nM.

`Cc1nccn1Cc1cncc(-c2ccc(F)c(Cl)c2)c1` [Example 140, 3-(3-Chloro-4-fluoro-phenyl)-5-(2-methyl-imidazol-1-yl-methyl)-pyridine Hydrochloride (1:1)]: the IC50 came to 40 nM.

In turn, `Cc1nccn1Cc1cncc(-c2ccc(Cl)c(C(F)(F)F)c2)c1` [Example 141, 3-(4-Chloro-3-trifluoromethyl-phenyl)-5-(-2-methyl-imidazol-1-yl-methyl)-pyridine Hydrochloride (1:1)] had an IC50 of 39 nM.

In the case of `CCc1nccn1Cc1cn(-c2cccc(SC(F)(F)F)c2)cn1` [Example 143], the IC50 was determined as 7.3 nM.

`CCc1nccn1Cc1cn(-c2ccc(F)c(C(C)(F)F)c2)cn1` [Example 151, 1H-Imidazole, 1-[[1-1-[3-(1,1-Difluoroethyl)-4-fluorophenyl]-1H-imidazol-4-yl]methyl]-ethyl-, Hydrochloride (1:2)]: the IC50 is 14 nM.

System in the next data set: not given
Assay: not given
Details: not given
`CCc1nccn1Cc1cn(-c2cccc(OC(F)(F)F)c2)cn1.Cl.Cl`: the melting point lay within 237 to 239 °C.

In the case of `COc1cc(-n2cnc(Cn3ccnc3)c2)ccc1Cl.Cl.Cl`, the melting point fell in the range of 221 to 222 °C.

Regarding `CCc1nccn1Cc1cn(-c2ccc(C)c(F)c2)cn1.Cl.Cl`, the melting point is more than 250 °C.

`Cc1nccn1Cc1cn(-c2ccc(Cl)cc2F)cn1.Cl.Cl` gave a melting point of 235 to 236 °C.

`Cl.Cl.Fc1cc(Cl)ccc1-n1cnc(Cn2ccnc2)c1`: the melting point was > 212 °C (dec.).

`Cc1nccn1Cc1cn(-c2ccc3c(c2)COC3)cn1.Cl.Cl` showed a melting point of more than 250 °C.

Take `COc1ccc(-n2cnc(Cn3ccnc3C)c2)cc1.Cl.Cl`: the melting point is more than 250 °C.

`Cc1ccc(-n2cnc(Cn3ccnc3)c2)cc1C` (as salt: hydrochloride) [Example 21] had a melting point of 218 to 219 °C.

Consider `CSc1ccc(-n2cnc(Cn3ccnc3C)c2)cc1` (as salt: hydrochloride) [Example 27], for which the melting point fell in the range of 242 to 243 °C.

The compound `Cc1cc(-n2cnc(Cn3ccnc3N)c2)ccc1Cl` (as salt: hydrochloride) [Example 105, 1-[1-(4-Chloro-3-methyl-phenyl)-1H-imidazol-4-yl-methyl]-1H-imidazol-2-yl-amine-, Hydrochloride (1:2)] had a melting point of 230 to 233 °C.

In turn, `CCc1nccn1Cc1cn(-c2cccc(SC(F)(F)F)c2)cn1` (as salt: hydrochloride) [Example 143] registered a melting point of 234 to 236 °C.

`CCc1nccn1Cc1cn(-c2ccc(F)c(C(C)(F)F)c2)cn1` (as salt: hydrochloride) [Example 151, 1H-Imidazole, 1-[[1-1-[3-(1,1-Difluoroethyl)-4-fluorophenyl]-1H-imidazol-4-yl]methyl]-ethyl-, Hydrochloride (1:2)]: the melting point is > 200 °C (dec.).

In the case of `CCc1nccn1Cc1cn(-c2cccc(C(C)C)c2)cn1` (as salt: hydrochloride) [Example 153], the melting point is > 200 °C (dec.).

In turn, `Cc1nccn1Cc1cn(-c2ccc3ccccc3c2)cn1` (as salt: hydrochloride) [Example 155, 1H-Imidazole, 2-Methyl-1-[[1-(naphtalen-2-yl)-1H-imidazol-4-yl]methyl]-, Hydrochloride (1:2)] had a melting point of 247 to 248 °C.

For the compound `Cc1nccn1Cc1cn(-c2cccc(Cl)c2)cn1` (as salt: hydrochloride) [Example 173], the melting point is > 200 °C (dec.).

Regarding `CCc1nccn1Cc1cn(-c2cc(OC)cc(C(F)(F)F)c2)cn1` (as salt: hydrochloride) [Example 181], the melting point was in the range of 245 to 246 °C.

The compound `Cc1nccn1Cc1cn(-c2ccc3ccccc3n2)cn1` (as salt: sodium) [Example 204, 2-[4-(2-Methyl-imidazol-1-ylmethyl)-imidazol-1-yl]-quinoline] displayed a melting point of 160 °C.

Regarding `CCc1nccn1Cc1cn(-c2ccc3ccccc3n2)cn1` (as salt: sodium) [Example 205, 2-[4-(2-Ethyl-imidazol-1-ylmethyl)-imidazol-1-yl]-quinoline], the melting point was > 80 °C (dec.).

Consider `c1ccc2nc(-n3cnc(Cn4ccnc4)c3)ccc2c1` (as salt: sodium) [Example 206, 2-(4-Imidazol-1-ylmethyl-imidazol-1-yl)-quinoline], for which the melting point is > 150 °C (dec.).

Compound `CCc1nccn1Cc1cn(-c2cnc3ccccc3c2)cn1` (as salt: sodium) [Example 210, 3-[4-(2-Ethyl-imidazol-1-ylmethyl)-imidazol-1-yl]-quinoline] registered a melting point of 132 to 136 °C.

Regarding `Cc1nccn1Cc1cn(-c2cnc3ccccc3c2)cn1` (as salt: sodium) [Example 211, 3-[4-(2-Methyl-imidazol-1-ylmethyl)-imidazol-1-yl]-quinoline], the melting point is 168 to 172 °C.

With `Cc1nccn1Cc1cn(-c2ccc(Cl)cn2)cn1` (as salt: sodium) [Example 212, 5-Chloro-2-[4-(2-methyl-imidazol-1-ylmethyl)-imidazol-1-yl]-pyridine], the melting point was in the range of 192 to 196 °C.

As to `CCc1nccn1Cc1cn(-c2ccc(Cl)cn2)cn1` (as salt: sodium) [Example 213, 5-Chloro-2-[4-(2-ethyl-imidazol-1-ylmethyl)-imidazol-1-yl]-pyridine], the melting point lay in the range of 182 to 185 °C.

On to `Cc1nccn1Cc1cn(-c2ccc3ncccc3c2)cn1` (as salt: sodium) [Example 220, 6-[4-(2-Methyl-imidazol-1-ylmethyl)-imidazol-1-yl]-quinoline], for which the melting point is > 125 °C (dec.).

`CCc1nccn1Cc1cn(-c2ccc3ncccc3c2)cn1` (as salt: sodium) [Example 221, 6-[4-(2-Ethyl-imidazol-1-ylmethyl)-imidazol-1-yl]-quinoline]: the melting point was > 79 °C (dec.).

Consider `Cc1nccn1Cc1cn(-c2cccc3cccnc23)cn1` (as salt: sodium) [Example 222, 8-[4-(2-Methyl-imidazol-1-ylmethyl)-imidazol-1-yl]-quinoline], for which the melting point is 150 to 154 °C.

On to `CCc1nccn1Cc1cn(-c2cccc3cccnc23)cn1` (as salt: sodium) [Example 223, 8-[4-(2-Ethyl-imidazol-1-ylmethyl)-imidazol-1-yl]-quinoline], for which the melting point fell in the range of 78 to 81 °C.

In the case of `CC(=O)Nc1nccn1Cc1cn(-c2ccc(Cl)c(Cl)c2)cn1` [Example 110, N-{1-[1-(3,4-Dichloro-phenyl)-1H-imidazol-4-yl-methyl]-1H-imidazol-2-yl}-acetamide], the melting point was > 236 °C (dec.).

`Cc1nccn1Cc1cnn(-c2ccc(Cl)c(Cl)c2)c1` [Example 114, 1-(3,4-Dichloro-phenyl)-4-(2-methyl-imidazol-1-yl-methyl)-1H-pyrazole] registered a melting point of 176 to 177 °C.

For orientation: IC50 means the concentration needed to halve the response being measured. Low values mean greater potency in that assay, high ones weaker potency in that assay. As usually defined, the melting point is the temperature, or range, at which the solid turns liquid.

The record behind these values is patent publication US6667335B2, “Imidazole derivatives” (Hoffmann-La Roche Inc., priority 2001, dated 2003).
